From US20250042961A1, “P53 PEPTIDOMIMETIC MACROCYCLES” (MERCK SHARP & DOHME LLC, priority 2021, published 2025)
pEC50, pKd: −log10 of the molar value. Converted amounts (≈) assume the structure as drawn. Read-outs that look alike come from different tables or passages of the source. *1 amine or outer side, *2 acyl side, *3 side chain or, on linkers, in order; H or OH if unused. Where a SMILES comes first, the peptide text is derived from it. Bridges are numbered along the chain shown (N, C = ends). [ ]: non-standard residue; d: D form. ξ: configuration not given here. ξαMeNle(6-ylidene) = CC(CCCC=[*:3])(N[*:1])C(=O)[*:2]; dPhe(4-CF3) = N[C@H](Cc1ccc(C(F)(F)F)cc1)C(=O)O; dTrp(6-F) = N[C@H](Cc1c[nH]c2cc(F)ccc12)C(=O)O

Assays:
[1] = system: HCT116 cells; type: cell-based; conditions: serum condition not stated; read-out: LDH-release EC50
Method: HCT116 cells were stably transfected with a p53 responsive β-lactamase reporter and expanded in McCoy's 5A Medium with 10% fetal bovine serum (FBS), Blasticidin, and Penicillin/Streptomycin and then transferred to 1.5 mL freezing vials and stored under liquid nitrogen in growth media containing 5% DMSO. One day prior the assay, a vial of banked cells was recovered in a cell culture flask and incubated for 24 hours, followed by removal of cell growth media and replacement with Opti-MEM containing 2% FBS. The cells were then seeded into a 384-well plate at a density of 8000 cells per well. […] The final working concentration of DMSO was 0.5%. Lactate dehydrogenase release was detected using the CytoTox-ONE Homogenous Membrane Integrity Assay Kit (Promega), as per the manufacturer's instructions. Measurements were carried out using the Tecan plate reader. Maximum LDH release was defined as the amount of LDH released as induced by the lytic peptide (iDNA79) and used to normalize the results. Measurements were taken a minimum of three times (biological replicates) and values are reported as geometric means of the replicates.

[2] = target: T1, MDM2 (1-125) (Homo sapiens, UniProt Q00987); assay: Competitive fluorescence anisotropy assay (FP Kd MDM2); type: binding
T1 construct: GST (N); His6 (N); TEV cleavage site ENLYFQG (N); made in house; host or cells: Escherichia coli BL21 (DE3) Rosetta T1R
T1 sequence (Q00987 with tags, fused parts or gaps): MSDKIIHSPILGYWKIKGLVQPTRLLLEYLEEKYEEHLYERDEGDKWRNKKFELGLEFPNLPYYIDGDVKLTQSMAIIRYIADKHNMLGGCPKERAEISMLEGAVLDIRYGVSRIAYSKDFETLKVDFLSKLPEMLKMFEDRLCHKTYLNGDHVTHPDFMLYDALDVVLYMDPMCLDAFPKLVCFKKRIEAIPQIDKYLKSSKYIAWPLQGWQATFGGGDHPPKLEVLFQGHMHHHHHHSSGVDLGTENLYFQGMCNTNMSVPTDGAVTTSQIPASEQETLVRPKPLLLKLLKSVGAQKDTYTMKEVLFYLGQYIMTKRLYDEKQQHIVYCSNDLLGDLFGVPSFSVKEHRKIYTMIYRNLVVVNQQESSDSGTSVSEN
Source text: For use in the peptide binding assay, a human MDM2 1-125 sequence was cloned into a pNIC-GST vector. The TEV (tobacco etch virus) cleavage site was changed from ENLYFQS (SEQ ID NO: 13) to ENLYFQG (SEQ ID NO: 14) to give a fusion protein with the following sequence:
[P] is the protein concentration (MDM2), [L] is the labeled peptide concentration, r is the anisotropy measured, r0 is the anisotropy of the free peptide, rb is the anisotropy of the MDM2-FAM-labeled peptide complex, Kd is the dissociation constant, [L]t is the total FAM labeled peptide concentration, and [P]t is the total MDM2 concentration. […] These values were then used to determine apparent Kd values of the respective competing ligands in subsequent competition assays in fluorescence anisotropy experiments. MDM2 and MDM4 competition experiments were performed with their respective concentrations held constant at 250 nM and 75 nM, in the presence of 50 nM of FAM-labeled 12/1. The competing molecules were then titrated against the complex of the FAM-labeled peptide and protein. Apparent Kd values were determined by fitting the experimental data to the equations shown below:
[L]st and [L]t denote labeled ligand and total unlabeled ligand input concentrations, respectively. Kd2 is the dissociation constant of the interaction between the unlabeled ligand and the protein.
In all competition experiments, it is assumed that [P]t>[L]st, otherwise considerable amounts of free labeled ligand would always be present and would interfere with measurements. Kd1 is the apparent Kd for the labeled peptide used and has been experimentally determined as described in the previous paragraph. The FAM-labeled peptide was dissolved in dimethyl sulfoxide (DMSO) at 1 mM and diluted into experimental buffer. Readings were carried out with an Envision Multilabel Reader (PerkinElmer). Experiments were carried out in PBS (2.7 mM KCl, 137 mM NaCl, 10 mM Na2HPO4 and 2 mM KH2PO4 (pH 7.4)) and 0.1% Tween-20 buffer. All titrations were carried out in triplicate. Curve-fitting was carried out using Prism 4.0 (GraphPad®). […] Negative control titrations of the ligands under investigation were also carried out with the fluorescently labeled peptide (in the absence of MDM2) to ensure no interactions were occurring between the ligands and the FAM-labeled peptide. […] Measurements were taken a minimum of three times (biological replicates) and values are reported as geometric means of the replicates.

[3] = system: p53 null Ca Ski; type: cell-based; conditions: 72 h
Source text: (§1) To further establish the impact of the above modification in making cleaner “drug” like compounds, we profiled a set of compounds of the invention in cellular proliferation assays (Table 3).

[4] = system: HCT116; type: cell-based; conditions: for pEC50: 72 h; for HCT116 proliferation % Max: 72 hours, 10% serum
Source text: as §1

[5] = system: Jump-In T-REx CHO-K1 BLA cells; assay: Tetracycline beta-lactamase reporter gene cellular assay (counterscreen); type: cell-based
Method: This assay was based on Jump-In™ T-REx™ CHO-K1 BLA cells containing a stably integrated β-lactamase under the control of an inducible cytomegalovirus (CMV) promoter. Cells were maintained in Dulbecco's Minimal Eagle Medium (DMEM) with 10% fetal bovine serum (FBS), Blasticidin, and Penicillin/Streptomycin and then transferred to 1.5 mL freezing vials and stored under liquid nitrogen in growth media containing 5% DMSO. […] Cells were seeded into a 384-well plate at a density of 4000 cells per well. […] The final working concentration of DMSO was 0.5%. β-lactamase activity was detected using the ToxBLAzer Dual Screen (Invitrogen), as per the manufacturer's instructions. Measurements were carried out using the Envision multiplate reader (PerkinElmer). Counterscreen activity was defined as the amount of β-lactamase activity induced by tetracycline. Measurements were taken a minimum of three times (biological replicates) and values are reported as geometric means of the replicates.

[6] = system: p53 responsive β-lactamase reporter in HCT116 cells; assay: p53 beta-lactamase reporter gene cellular functional assay; type: cell-based
Method: HCT116 cells were stably transfected with a p53 responsive β-lactamase reporter and expanded in McCoy's 5A Medium with 10% fetal bovine serum (FBS), Blasticidin, and Penicillin/Streptomycin and then transferred to 1.5 mL freezing vials and stored under liquid nitrogen in growth media containing 5% DMSO. […] The cells were then seeded into a 384-well plate at a density of 8000 cells per well. […] The final working concentration of DMSO was 0.5%. β-lactamase activity was detected using the ToxBLAzer Dual Screen (Invitrogen), as per the manufacturer's instructions. Measurements were made using the Envision multiplate reader (PerkinElmer). […] Measurements were taken a minimum of three times (biological replicates) and values are reported as geometric means of the replicates.

[7] = Solubility (PBS, pH 7)
[8] = read-out: Counter screen EC50 (0% FBS, 4 h), 0% FBS, 4 h
[9] = read-out: Counter screen EC50 (10% FBS, 16 h), 10% FBS, 16 h
[10] = read-out: p53 activity EC50 (0% FBS, 4 h), 0% FBS, 4 h
[11] = read-out: p53 activity EC50 (10% FBS, 16 h), 10% FBS, 16 h

Row | Structure (SMILES) | pEC50 [1] | pKd [2] | pEC50 [3] | pEC50 [4] | pEC50 [6, 10] | pEC50 [6, 11] | pEC50 ([6]; read-out: p53 activity EC50 (10% FBS, 16 h), 10% FBS, 16 h, listed as compound 4) | HCT116 proliferation % Max [4] | pEC50 [5, 8] | pEC50 [5, 9] | pEC50 ([5]; serum condition not stated, read-out: counterscreen EC50) | improvement of p53 reporter gene functional cellular activity ([6]; 0% serum, versus compound 1) | solubility [7] | p53 null Ca Ski proliferation % Max (inhibition at maximum concentration) [3] | improvement of cell efficacy in HCT116 proliferation versus compound 2 [4] | overall improvement of cellular activity compared to parent peptide ([6]; 10% serum)
1 | CC(=O)N[C@@H](C(=O)N[C@H](C)C(=O)N[C@H](Cc1c[nH]c2cc(F)ccc12)C(=O)N[C@H](Cc1ccc(O)cc1)C(=O)N[C@H](C)C(=O)NC1(C)CCC/C=C\CCCC(C)(C(=O)N[C@H](CC(C)C)C(=O)N[C@H](CO)C(=O)N[C@H](C)C(=O)N[C@H](C)C(=O)N[C@H](C)C(N)=O)NC(=O)[C@@H](CCC(N)=O)NC(=O)[C@@H](CCC(=O)O)NC(=O)[C@@H](Cc2ccc(C(F)(F)F)cc2)NC1=O)[C@H](C)O.N (stereo partly drawn) [Compound 3, Acetyl-^DPMI-δ-(6-10 olefinstaple) (D-K9D-Q, D-R12D-S, 3x(D-A)polypeptidetail)-NH2] (Ac-[dT][dA][dTrp(6-F)][dY][dA][ξαMeNle(6-ylidene)][dPhe(4-CF3)][dE][dQ][ξαMeNle(6-ylidene)][dL][dS][dA][dA][dA]-NH2; staple (Z) 6-10) | – | 8.51 | – | – | 5.84 | 5.36 | – | – | < 4.30 | < 4.30 | – | – | 140 µM | – | – | –
2 | CC(=O)N[C@@H](C(=O)N[C@H](C)C(=O)N[C@H](Cc1c[nH]c2cc(F)ccc12)C(=O)N[C@H](Cc1ccc(O)cc1)C(=O)N[C@H](C)C(=O)NC1(C)CCC/C=C\CCCC(C)(C(=O)N[C@H](CC(C)C)C(=O)N[C@H](CO)C(=O)N[C@H](C)C(=O)N[C@H](C)C(=O)N[C@H](C)C(=O)N[C@H](CCC(=O)O)C(=O)N[C@H](C)C(=O)N[C@H](C)C(N)=O)NC(=O)[C@@H](CCC(N)=O)NC(=O)[C@@H](CCC(=O)O)NC(=O)[C@@H](Cc2ccc(C(F)(F)F)cc2)NC1=O)[C@H](C)O (stereo partly drawn) [Compound 7, Acetyl-^DPMI-δ-(6-10 olefinstaple) (D-K9D-Q, D-R12D-S, 3x(D-Ala)-(D-Glu)-2x(D-Ala)polypeptidetail)-NH2] (Ac-[dT][dA][dTrp(6-F)][dY][dA][ξαMeNle(6-ylidene)][dPhe(4-CF3)][dE][dQ][ξαMeNle(6-ylidene)][dL][dS][dA][dA][dA][dE][dA][dA]-NH2; staple (Z) 6-10) | – | 9.37 | – | – | 5.85 | 6.10 | – | – | < 4.30 | < 4.30 | – | – | – | – | – | –
3 | CC(=O)N[C@@H](C(=O)N[C@H](C)C(=O)N[C@H](Cc1c[nH]c2cc(F)ccc12)C(=O)N[C@H](Cc1ccc(O)cc1)C(=O)N[C@H](C)C(=O)NC1(C)CCC/C=C\CCCC(C)(C(=O)N[C@H](CC(C)C)C(=O)N[C@H](CO)C(=O)N[C@H](C)C(=O)N[C@H](C)C(=O)N[C@H](C)C(=O)N[C@H](C)C(=O)N[C@H](C)C(=O)N[C@H](C)C(N)=O)NC(=O)[C@@H](CCC(N)=O)NC(=O)[C@@H](CCC(=O)O)NC(=O)[C@@H](Cc2ccc(C(F)(F)F)cc2)NC1=O)[C@H](C)O (stereo partly drawn) [Compound 4, Acetyl-^DPMI-δ-(6-10 olefinstaple) (D-K9D-Q, D-R12D-S, 6x(D-A)polypeptidetail)-NH2] (Ac-[dT][dA][dTrp(6-F)][dY][dA][ξαMeNle(6-ylidene)][dPhe(4-CF3)][dE][dQ][ξαMeNle(6-ylidene)][dL][dS][dA][dA][dA][dA][dA][dA]-NH2; staple (Z) 6-10) | – | 8.49 | 4.51 | 5.83 | 6.21 | 6.55 | 6.52 | 84.5%^ | < 4.30 | < 4.30 | – | – | – | 66% | greater than 6 fold | 100 fold

Continued by rising pKd [2], values first:

Row | pEC50 [1] | pKd [2] | pEC50 [3] | pEC50 [4] | pEC50 [6, 10] | pEC50 [6, 11] | pEC50 ([6]; read-out: p53 activity EC50 (10% FBS, 16 h), 10% FBS, 16 h, listed as compound 4) | Structure (SMILES) | HCT116 proliferation % Max [4] | pEC50 [5, 8] | pEC50 [5, 9] | pEC50 ([5]; serum condition not stated, read-out: counterscreen EC50) | improvement of p53 reporter gene functional cellular activity ([6]; 0% serum, versus compound 1) | solubility [7] | p53 null Ca Ski proliferation % Max (inhibition at maximum concentration) [3] | improvement of cell efficacy in HCT116 proliferation versus compound 2 [4] | overall improvement of cellular activity compared to parent peptide ([6]; 10% serum)
4 | < 4.30 | 6.59 | 4.52 | 5.04 | 5.44 | < 4.30 | – | CC(=O)N[C@@H](C(=O)N[C@H](C)C(=O)N[C@H](Cc1c[nH]c2cc(F)ccc12)C(=O)N[C@H](Cc1ccc(O)cc1)C(=O)N[C@H](C)C(=O)NC1(C)CCC/C=C\CCCC(C)(C(=O)N[C@H](CC(C)C)C(=O)N[C@H](CO)C(N)=O)NC(=O)[C@@H](CCC(N)=O)NC(=O)[C@@H](CCC(=O)O)NC(=O)[C@@H](Cc2ccc(C(F)(F)F)cc2)NC1=O)[C@H](C)O (stereo partly drawn) [Compound 2, Acetyl-^DPMI-δ-(6-10 olefinstaple) (D-K9D-Q, D-R12D-S)-NH2] (Ac-[dT][dA][dTrp(6-F)][dY][dA][ξαMeNle(6-ylidene)][dPhe(4-CF3)][dE][dQ][ξαMeNle(6-ylidene)][dL][dS]-NH2; staple (Z) 6-10) | 80% | < 4.30 | < 4.30 | < 4.30 | 3 fold | – | – | – | –
5 | – | 7.66 | – | – | ≤ 4.30 | < 4.30 | – | CC(=O)N[C@@H](C(=O)N[C@H](C)C(=O)N[C@H](Cc1c[nH]c2cc(F)ccc12)C(=O)N[C@H](Cc1ccc(O)cc1)C(=O)N[C@H](C)C(=O)NC1(C)CCC/C=C\CCCC(C)(C(=O)N[C@H](CC(C)C)C(=O)N[C@H](CO)C(=O)N[C@H](C)C(=O)N[C@H](C)C(=O)N[C@H](C)C(=O)N[C@H](C)C(=O)N[C@H](C)C(=O)N[C@H](C)C(=O)N[C@H](C)C(=O)N[C@H](C)C(=O)N[C@H](C)C(N)=O)NC(=O)[C@@H](CCC(N)=O)NC(=O)[C@@H](CCC(=O)O)NC(=O)[C@@H](Cc2ccc(C(F)(F)F)cc2)NC1=O)[C@H](C)O (stereo partly drawn) [Compound 5, Acetyl- ^DPMI-δ-(6-10 olefinstaple) (D-K9D-Q, D-R12D-S, 9x(D-A)polypeptidetail)-NH2] (Ac-[dT][dA][dTrp(6-F)][dY][dA][ξαMeNle(6-ylidene)][dPhe(4-CF3)][dE][dQ][ξαMeNle(6-ylidene)][dL][dS][dA][dA][dA][dA][dA][dA][dA][dA][dA]-NH2; staple (Z) 6-10) | – | < 4.30 | < 4.30 | – | – | 16 µM (≈ 35.7 µg/mL) | – | – | –
